# Data from patent publication US10434112B2, “Use of agonists of formyl peptide receptor 2 for treating dermatological diseases” (Allergan, Inc., priority 2013, dated 2019).
# pEC50: −log10 of the molar value.
# Biological target: human FPR2 receptor (Homo sapiens (Human), UniProt P25090)
# Test: FLIPR Ca+2 response in HEK-Gα16 cells stably expressing the human FPR2 receptor
# Assay type: cell-based
# Parameters: FPR2 (% eff): unit not given here
# Conditions: Table 4
# Protocol: FLIPR: HEK-Gα16 cells stably expressing the human FPR2 receptor was utilized. Cells were plated into 384-well poly-D-lysine coated plates at a density of 18,000 cells per well one day prior to use. The growth media was DMEM medium supplemented with 10% fetal bovine serum (FBS), 1% antibiotic-antimycotic, 50 μg/ml hygromycin, and 400 μg/ml geneticin. On the day of the experiment, the cells were washed twice with Hank's Balanced Salt Solution supplemented with 20 mM HEPES (HBSS/hepes buffer). The cells were then dye loaded with 2 μM Fluo-4 diluted in the HBSS/Hepes buffer and incubated at 37° C. for 40 minutes. Extracellular dye was removed by washing the cell plates four times prior to placing the plates in the FLIPR (Fluorometric Imaging Plate Reader, Molecular Devices). Ligands were diluted in HBSS/Hepes buffer and prepared in 384-well microplates. Data for Ca^+2 responses were obtained in relative fluorescence units.
# human FPR2 receptor, sequence (P25090 whole entry): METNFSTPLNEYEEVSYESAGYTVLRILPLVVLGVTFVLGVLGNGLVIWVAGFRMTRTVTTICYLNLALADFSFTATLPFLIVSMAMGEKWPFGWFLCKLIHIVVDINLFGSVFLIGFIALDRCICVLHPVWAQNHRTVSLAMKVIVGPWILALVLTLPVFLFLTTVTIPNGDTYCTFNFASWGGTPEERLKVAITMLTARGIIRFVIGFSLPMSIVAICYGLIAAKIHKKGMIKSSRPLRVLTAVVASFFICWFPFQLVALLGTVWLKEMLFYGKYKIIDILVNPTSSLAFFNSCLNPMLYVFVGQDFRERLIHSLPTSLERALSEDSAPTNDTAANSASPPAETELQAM
row,SMILES,pEC50
1,"CC[C@H](C)[C@H](NC(=O)Nc1ccc(Br)cc1F)C(=O)NCC(N)=O [Compound 62, (2S,3S)-N-(2-amino-2-oxoethyl)-2-{[(4-bromo-2-fluorophenyl)carbamoyl]amino}-3-methylpentanamide]",7.99
2,"CC(=O)CNC(=O)[C@H](Cc1ccccc1)NC(=O)Nc1ccc(Br)cc1F [Compound 68, (2S)-2-{[(4-bromo-2-fluorophenyl)carbamoyl]amino}-N-(2-oxopropyl)-3-phenylpropanamide]",7.91
3,"O=C(Nc1ccc(Br)cc1F)N[C@@H](Cc1ccccc1)C(=O)NCCO [Compound 71, (2S)-2-{[(4-bromo-2-fluorophenyl)carbamoyl]amino}-N-(2-hydroxyethyl)-3-phenylpropanamide]",7.81
4,"CC(C)C[C@H](NC(=O)Nc1ccc(Br)cc1)C(=O)NCC(N)=O [Compound 77, (2S)-N-(2-amino-2-oxoethyl)-2-{[(4-bromophenyl)carbamoyl]amino}-4-methylpentanamide]",8.96

# Same assay, conditions: Table 4; value in brackets, given mostly as fraction
row,SMILES,FPR2 (% eff)
1,"CSc1ccc(NC(=O)Nc2ccc3c(c2)C(=O)N(CCCN)C(C)C3)cc1 (stereo not drawn) [Compound 42, 1-[2-(3-aminopropyl)-3-methyl-1-oxo-1,2,3,4-tetrahydroisoquinolin-7-yl]-3-[4-(methylsulfanyl)phenyl]urea]",1.00
2,"N#Cc1ccc(C2Cc3ccc(NC(=O)Nc4ccc(I)cc4)cc3C(=O)N2CCCN)cc1 (stereo not drawn) [Compound 43, 1-[2-(3-aminopropyl)-3-(4-cyanophenyl)-1-oxo-1,2,3,4-tetrahydroisoquinolin-7-yl]-3-(4-iodophenyl)urea]",0.94
3,"CNC(=O)C1C(C(=O)Nc2ccc(Br)cc2)C2CCC1C21CC1 (stereo not drawn) [Compound 46, N-(4-bromophenyl)-N′-methylspiro[bicyclo[2.2.1]heptane-7,1′-cyclopropane]-2,3-dicarboxamide]",1.0
4,"CCNC(=O)C1C(C(=O)Nc2ccc(Br)cc2)C2CCC1C21CC1 (stereo not drawn) [Compound 47, N-(4-bromophenyl)-N′-ethylspiro[bicyclo[2.2.1]heptane-7,1′-cyclopropane]-2,3-dicarboxamide]",1.0
5,"CC(C)NC(=O)C1C(C(=O)Nc2ccc(Br)cc2)C2CCC1C21CC1 (stereo not drawn) [Compound 48, N-(4-bromophenyl)-N′-(propan-2-yl)spiro[bicyclo[2.2.1]heptane-7,1′-cyclopropane]-2,3-dicarboxamide]",1.0
6,"CCC1(CC)NC(=O)N(NC(=O)Nc2ccc(Br)cc2)C1=O [Compound 49, 1-(4-bromophenyl)-3-(4,4-diethyl-2,5-dioxoimidazolidin-1-yl)urea]",0.98
7,"CCC1(CC)NC(=O)N(NC(=O)Nc2ccc(Br)cc2F)C1=O [Compound 50, 1-(4-bromo-2-fluorophenyl)-3-(4,4-diethyl-2,5-dioxoimidazolidin-1-yl)urea]",1.0
8,"O=C(Nc1ccc(Br)cc1)NN1C(=O)NC2(CCCCC2)C1=O [Compound 52, 1-(4-bromophenyl)-3-(2,4-dioxo-1,3-diazaspiro[4.5]dec-3-yl)urea]",1.0
9,"O=C(O)CNC(=O)[C@H](Cc1ccccc1)NC(=O)Nc1ccc(Br)cc1 [Compound 55, {[(2S)-2-{[(4-bromophenyl)carbamoyl]amino}-3-phenylpropanoyl]amino} acetic acid]",0.99
10,"O=C(O)CCNC(=O)[C@H](Cc1ccccc1)NC(=O)Nc1ccc(Br)cc1 [Compound 56, 3-{[(2S)-2-{[(4-bromophenyl)carbamoyl]amino}-3-phenylpropanoyl]amino} propanoic acid]",0.98
11,"O=C(Nc1ccc(Br)cc1)N[C@@H](Cc1ccccc1)C(=O)NCCO [Compound 58, (2S)-2-{[(4-bromophenyl)carbamoyl]amino}-N-(2-hydroxyethyl)-3-phenylpropanamide]",0.86
12,"CC[C@H](C)[C@H](NC(=O)Nc1ccc(Br)cc1F)C(=O)NCC(=O)O [Compound 59, {[(2S,3S)-2-{[(4-bromo-2-fluorophenyl)carbamoyl]amino}-3-methylpentanoyl]amino} acetic acid]",0.95
13,"CC[C@H](C)[C@H](NC(=O)Nc1ccc(Br)cc1)C(=O)NCC(N)=O [Compound 60, (2S,3S)-N-(2-amino-2-oxoethyl)-2-{[(4-bromophenyl)carbamoyl]amino}-3-methylpentanamide]",0.91
14,"CCC1(C(C)C)NC(=O)N(NC(=O)Nc2ccc(Br)cc2F)C1=O (stereo not drawn) [Compound 61, 1-(4-bromo-2-fluorophenyl)-3-[4-ethyl-2,5-dioxo-4-(propan-2-yl)imidazolidin-1-yl]urea]",0.97
15,"CC[C@H](C)[C@H](NC(=O)Nc1ccc(Br)cc1F)C(=O)NCC(N)=O [Compound 62, (2S,3S)-N-(2-amino-2-oxoethyl)-2-{[(4-bromo-2-fluorophenyl)carbamoyl]amino}-3-methylpentanamide]",100
16,"CC[C@H](C)[C@H](NC(=O)Nc1ccc(Br)cc1)C(=O)NCC(C)=O [Compound 63, (2S,3S)-2-{[(4-bromophenyl)carbamoyl]amino}-3-methyl-N-(2-oxopropyl)pentanamide]",0.97
17,"CC(C)C1(C(C)C)NC(=O)N(NC(=O)Nc2ccc(Br)cc2)C1=O [Compound 64, 1-(4-bromophenyl)-3-[2,5-dioxo-4,4-di(propan-2-yl)imidazolidin-1-yl]urea]",1.0
18,"O=C(Nc1ccc(Br)cc1)NN1C(=O)NC(C2CC2)(C2CC2)C1=O [Compound 65, 1-(4-bromophenyl)-3-(4,4-dicyclopropyl-2,5-dioxoimidazolidin-1-yl)urea]",1.0
19,"CC(=O)CNC(=O)[C@H](Cc1ccccc1)NC(=O)Nc1ccc(Br)cc1F [Compound 68, (2S)-2-{[(4-bromo-2-fluorophenyl)carbamoyl]amino}-N-(2-oxopropyl)-3-phenylpropanamide]",0.94
20,"CCC1(CCc2ccccc2)NC(=O)N(NC(=O)Nc2ccc(Br)cc2F)C1=O (stereo not drawn) [Compound 69, 1-(4-bromo-2-fluorophenyl)-3-[4-ethyl-2,5-dioxo-4-(2-phenylethyl)imidazolidin-1-yl]urea]",0.91
21,"CCC[C@H](NC(=O)Nc1ccc(Br)cc1)C(=O)O [Compound 70, (2S)-2-{[(4-bromophenyl)carbamoyl]amino}pentanoic acid]",1.0
22,"O=C(Nc1ccc(Br)cc1F)N[C@@H](Cc1ccccc1)C(=O)NCCO [Compound 71, (2S)-2-{[(4-bromo-2-fluorophenyl)carbamoyl]amino}-N-(2-hydroxyethyl)-3-phenylpropanamide]",0.98
23,"CCC[C@H](NC(=O)Nc1ccc(Br)cc1)C(=O)NCC(=O)OC [Compound 72, methyl {[(2S)-2-{[(4-bromophenyl)carbamoyl]amino}pentanoyl]amino}acetate]",0.86
24,"CCC[C@H](NC(=O)Nc1ccc(Br)cc1)C(=O)NCC(=O)OC(C)C [Compound 73, propan-2-yl {[(2S)-2-{[(4-bromophenyl)carbamoyl]amino}pentanoyl]amino}acetate]",1.0
25,"CCC[C@H](NC(=O)Nc1ccc(Br)cc1F)C(=O)NCC(=O)O [Compound 74, {[(2S)-2-{[(4-bromo-2-fluorophenyl)carbamoyl]amino}pentanoyl]amino}acetic acid]",0.91
26,"CC(C)C[C@H](NC(=O)Nc1ccc(Br)cc1)C(=O)NCCO [Compound 75, (2S)-2-{[(4-bromophenyl)carbamoyl]amino}-N-(2-hydroxyethyl)-4-methylpentanamide]",0.76
27,"CC1(CCc2ccco2)NC(=O)N(NC(=O)Nc2ccc(Br)cc2)C1=O (stereo not drawn) [Compound 76, 1-(4-bromophenyl)-3-{4-[2-(furan-2-yl)ethyl]-4-methyl-2,5-dioxoimidazolidin-1-yl}urea]",0.99
28,"CC(C)C[C@H](NC(=O)Nc1ccc(Br)cc1)C(=O)NCC(N)=O [Compound 77, (2S)-N-(2-amino-2-oxoethyl)-2-{[(4-bromophenyl)carbamoyl]amino}-4-methylpentanamide]",1.0
29,"CC(=O)CNC(=O)[C@H](CC(C)C)NC(=O)Nc1ccc(Br)cc1 [Compound 78, (2S)-2-{[(4-bromophenyl)carbamoyl]amino}-4-methyl-N-(2-oxopropyl)pentanamide]",0.82
